Data on three molecules can be found in publication PMC3907537, “Evaluation of the Endothelin Receptor Antagonists Ambrisentan, Bosentan, Macitentan, and Sitaxsentan as Hepatobiliary Transporter Inhibitors and Substrates in Sandwich-Cultured Human Hepatocytes” (PLoS ONE, 2014).

Where only a bound is given, the exact number is not on record here.

T1 sequence (Q92887 whole entry): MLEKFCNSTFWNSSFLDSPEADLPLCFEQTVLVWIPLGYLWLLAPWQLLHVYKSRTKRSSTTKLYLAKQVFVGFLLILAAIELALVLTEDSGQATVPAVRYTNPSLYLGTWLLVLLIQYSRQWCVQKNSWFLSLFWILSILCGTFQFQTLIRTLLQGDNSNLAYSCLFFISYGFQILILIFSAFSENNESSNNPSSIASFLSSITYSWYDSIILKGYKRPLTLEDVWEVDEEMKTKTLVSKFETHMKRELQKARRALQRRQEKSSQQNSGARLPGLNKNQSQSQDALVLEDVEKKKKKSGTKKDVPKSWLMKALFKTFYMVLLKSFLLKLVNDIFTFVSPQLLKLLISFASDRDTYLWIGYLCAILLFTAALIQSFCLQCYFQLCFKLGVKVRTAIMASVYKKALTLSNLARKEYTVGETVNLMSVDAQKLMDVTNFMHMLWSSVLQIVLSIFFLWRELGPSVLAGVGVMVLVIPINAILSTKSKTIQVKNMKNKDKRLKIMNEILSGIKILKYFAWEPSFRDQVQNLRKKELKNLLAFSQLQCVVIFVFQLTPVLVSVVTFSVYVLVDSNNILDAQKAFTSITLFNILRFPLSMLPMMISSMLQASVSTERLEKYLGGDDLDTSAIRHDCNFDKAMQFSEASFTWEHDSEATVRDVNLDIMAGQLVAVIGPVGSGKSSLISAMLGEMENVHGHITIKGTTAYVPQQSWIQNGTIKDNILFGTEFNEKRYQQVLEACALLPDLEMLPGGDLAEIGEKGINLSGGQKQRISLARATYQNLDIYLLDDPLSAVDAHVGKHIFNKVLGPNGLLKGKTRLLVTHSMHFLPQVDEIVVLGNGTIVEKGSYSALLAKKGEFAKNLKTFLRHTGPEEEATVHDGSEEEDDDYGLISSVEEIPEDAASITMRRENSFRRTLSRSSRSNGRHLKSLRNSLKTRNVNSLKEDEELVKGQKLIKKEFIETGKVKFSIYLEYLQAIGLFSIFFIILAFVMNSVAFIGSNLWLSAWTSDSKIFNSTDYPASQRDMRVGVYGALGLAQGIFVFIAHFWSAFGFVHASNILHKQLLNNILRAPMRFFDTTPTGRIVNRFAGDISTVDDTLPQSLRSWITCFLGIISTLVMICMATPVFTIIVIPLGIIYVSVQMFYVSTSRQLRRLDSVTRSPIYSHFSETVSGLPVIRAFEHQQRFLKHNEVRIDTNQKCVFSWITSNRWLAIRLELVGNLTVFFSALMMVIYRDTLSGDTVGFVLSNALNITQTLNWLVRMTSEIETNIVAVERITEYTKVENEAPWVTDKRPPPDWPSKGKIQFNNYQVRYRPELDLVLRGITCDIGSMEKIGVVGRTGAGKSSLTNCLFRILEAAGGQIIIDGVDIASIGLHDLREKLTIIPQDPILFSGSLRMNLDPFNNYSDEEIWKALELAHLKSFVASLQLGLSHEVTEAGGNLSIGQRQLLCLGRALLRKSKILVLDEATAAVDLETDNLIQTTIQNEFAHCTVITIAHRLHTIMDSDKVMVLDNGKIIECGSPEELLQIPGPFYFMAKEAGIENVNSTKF

One experiment addresses T1, MRP2 (Homo sapiens, UniProt Q92887).
T1 construct: purchased Solvo Biotechnology, Budaors, Hungary; host or cells: Sf9 insect cells (membrane vesicles)
The experiment in a line: MRP2 inhibition, estradiol-17-beta-glucuronide transport in Sf9 membrane vesicles. It counts as biochemical. The following applies: E217βG 0.2 µM, single experiment in duplicate, tested 0.14–100 µM. From the text: (§1) Chinese Hamster Ovary (CHO) cells were obtained from Professor B. Stieger’s laboratory at University of Zurich, Zurich, Switzerland. Madin-Darby Canine Kidney strain II (MDCKII) cells were obtained from Nederlands Kanker Instituut (NKI), Amsterdam, Netherlands. NTCP-CHO cells, BSEP and MRP2 membrane vesicles were developed and validated at Solvo Biotechnology, Budaors, Hungary.
BSEP and MRP2 inhibition was studied in membrane vesicles isolated from sf9 insect cells overexpressing the respective transporters. Vesicular transport inhibition assays used test compounds incubated with membrane vesicle preparations (total protein: 50 µg/well) and probe substrates, taurocholate (2 µM) for BSEP or Estradiol-17-beta-glucuronide (0.2 µM) for MRP2, in the absence or presence of ATP. Reaction mixtures were preincubated for 15 min at 37°C. Reactions were started by the addition of 25 µL of 12 mM MgATP or assay buffer (for background controls), preincubated separately. Reactions were stopped after 5 min by the addition of 200 µL of ice-cold washing buffer and immediate filtration via glass fiber filters mounted to a 96-well plate (filter plate). The filters were washed, dried and the amount of substrate inside the filtered vesicles determined by liquid scintillation. Cyclosporin A (20 µM) or benzbromarone (100 µM), for BSEP or MRP2, respectively, were used as positive control inhibitors. Control membranes lacking transporter expression were used as negative control.
(§2) All assays were performed in duplicate. IC50 was defined as the test article concentration needed to inhibit the maximal transporter specific accumulation by 50%. IC50 values were calculated using non-linear fitting of % inhibition versus concentration to a sigmoidal curve with a variable Hill Coefficient using GraphPad Prism 5 (GraphPad Software Inc., San Diego, CA).
What is called IC50 is the point on the concentration scale where inhibition reaches its midpoint. In turn, `COC(c1ccccc1)(c1ccccc1)[C@H](Oc1nc(C)cc(C)n1)C(=O)O` [ambrisentan] registered a concentration for half-maximal inhibition (IC50) of around 75 µM.

In turn, `COc1ccccc1Oc1c(NS(=O)(=O)c2ccc(C(C)(C)C)cc2)nc(-c2ncccn2)nc1OCCO` [bosentan] came in with an IC50 above 100 µM.

Molecule `CCCNS(=O)(=O)Nc1ncnc(OCCOc2ncc(Br)cn2)c1-c1ccc(Br)cc1` [macitentan] returned an IC50 above 100 µM.

The target of the next experiment is T2, Pgp (Homo sapiens, UniProt P08183).
T2 construct: host or cells: MDCKII
T2 sequence (P08183 whole entry): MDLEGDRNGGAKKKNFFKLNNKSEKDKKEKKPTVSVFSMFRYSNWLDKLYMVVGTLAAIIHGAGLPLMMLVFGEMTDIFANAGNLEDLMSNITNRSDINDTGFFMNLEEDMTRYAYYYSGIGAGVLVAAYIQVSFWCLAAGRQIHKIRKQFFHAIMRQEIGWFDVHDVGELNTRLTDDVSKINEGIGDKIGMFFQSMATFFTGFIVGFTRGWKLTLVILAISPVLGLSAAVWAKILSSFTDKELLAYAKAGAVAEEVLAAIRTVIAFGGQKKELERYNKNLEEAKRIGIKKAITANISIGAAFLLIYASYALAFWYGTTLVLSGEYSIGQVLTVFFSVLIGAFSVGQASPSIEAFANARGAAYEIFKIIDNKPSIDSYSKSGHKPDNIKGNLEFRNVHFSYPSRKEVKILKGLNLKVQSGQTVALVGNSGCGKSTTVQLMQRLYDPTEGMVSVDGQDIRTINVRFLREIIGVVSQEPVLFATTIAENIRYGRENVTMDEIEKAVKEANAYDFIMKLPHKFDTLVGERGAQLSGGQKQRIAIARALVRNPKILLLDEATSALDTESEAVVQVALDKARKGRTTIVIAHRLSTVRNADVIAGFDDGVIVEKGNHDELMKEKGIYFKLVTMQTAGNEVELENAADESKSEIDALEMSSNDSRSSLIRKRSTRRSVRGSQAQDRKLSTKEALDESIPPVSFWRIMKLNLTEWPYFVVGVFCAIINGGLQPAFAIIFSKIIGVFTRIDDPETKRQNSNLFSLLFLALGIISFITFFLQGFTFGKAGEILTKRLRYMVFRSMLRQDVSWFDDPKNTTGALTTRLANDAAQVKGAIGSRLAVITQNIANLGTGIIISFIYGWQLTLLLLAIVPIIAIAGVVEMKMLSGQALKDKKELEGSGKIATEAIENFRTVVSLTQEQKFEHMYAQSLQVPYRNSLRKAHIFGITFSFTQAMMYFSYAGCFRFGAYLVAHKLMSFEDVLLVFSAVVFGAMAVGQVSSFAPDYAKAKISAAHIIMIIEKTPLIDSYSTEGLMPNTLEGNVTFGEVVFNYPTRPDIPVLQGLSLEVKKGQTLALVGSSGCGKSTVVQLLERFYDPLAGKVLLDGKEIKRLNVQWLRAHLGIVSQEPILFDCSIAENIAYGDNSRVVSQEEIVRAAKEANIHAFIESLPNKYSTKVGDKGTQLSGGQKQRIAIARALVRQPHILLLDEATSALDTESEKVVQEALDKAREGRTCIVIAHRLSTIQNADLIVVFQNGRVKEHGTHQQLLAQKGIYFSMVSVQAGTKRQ
The experiment in a line: Pgp inhibition, Calcein AM in MDCKII cells. It counts as cell-based. The following applies: mean ± SD of 3 independent studies in duplicate, tested 0.14–100 µM.
Excerpt: as §1
MDCKII cells were maintained in DMEM with sodium pyruvate, Glutmax, 1% Penicillin/Streptomycin and 10% FBS in an incubator set at 37°C, 90% humidity and 5% CO2. MDCKII cells were seeded in 96-well black cell culture plates with clear bottoms at a density of 5×10^4 cells/well for Pgp and 2×10^4 cells/well for BCRP and grown to confluence. For the Pgp assay, test compounds were serially diluted in DMSO and then added into in cell culture medium (without FBS) containing 10 µM Calcein AM and incubated for 1 h. Following the removal of media containing Calcein AM and test compound, cells were washed five times with […] phosphate buffered saline containing magnesium and calcium (PBS). Wells were analyzed for Calcein AM fluorescence at an excitation of 494 nm and an emission of 517 nm. For the BCRP assay, test compounds were serially diluted DMSO and then spiked in cell culture medium (without FBS) containing 1 µM pheophorbide a (PhA) and incubated for 18 hours with MDCKII-ABCG2 cells. Following the removal of media containing PhA and test compound, cells were then washed five times with PBS. Wells were analyzed for PhA fluorescence at an excitation of 415 nm and an emission of 675 nm.
as §2
In the case of `COC(c1ccccc1)(c1ccccc1)[C@H](Oc1nc(C)cc(C)n1)C(=O)O` [ambrisentan], the IC50 was above 100 µM.

Take `COc1ccccc1Oc1c(NS(=O)(=O)c2ccc(C(C)(C)C)cc2)nc(-c2ncccn2)nc1OCCO` [bosentan]: the concentration for half-maximal inhibition (IC50) was above 100 µM.

`CCCNS(=O)(=O)Nc1ncnc(OCCOc2ncc(Br)cn2)c1-c1ccc(Br)cc1` [macitentan]: the IC50 was 64 ± 15 µM.
